Consider nine molecules from patent US20070065443A1, “Fructoseamine 3 kinase and the formation of collagen and elastin” (priority 2004, published 2007).

Values joined by “and” are separate entries in the source; they are usually repeats but may differ in a detail not shown here. Equal entries are not always repeated.

Series [1] addresses T1, Calf skin collagen type I (Bos taurus, UniProt P02453+P02465).
T1 construct: Calf skin collagen type I (1.3 mg; Sigma); purchased Sigma; host or cells: calf skin
Description: 3DG-induced collagen crosslinking and inhibition by arginine (CNBr digest, SDS-PAGE). It counts as biochemical. The conditions noted are these: 37° C., 24 hours. On the procedure: Collagen type I was treated with 3DG in the-presence or absence of arginine. The samples were subjected to cyanogen bromide (CNBr) digestion, electrophoresed on a 16.5% SDS Tris-tricine gel, and then the gels were processed using silver stain techniques to visualize the proteins. Lane 1 contains molecular weight marker standards. Lanes 2 and 5 contain 10 and 20 μl of the collagen mixture following CNBr digestion. Lanes 3 and 6 contain the collagen mixture treated with 3DG and then digested with CNBr, and loaded at 10 and 20 μl, respectively. Lanes 4 and 7 contain the mixture of collagen incubated with 5 mM 3DG and 10 mM arginine and then digested with CNBr, and loaded at 10 and 20 μl, respectively.
Collagen I was incubated in the presence or absence of 3DG in vitro. Calf skin collagen type I (1.3 mg; Sigma) was incubated in 20 mM Na-phosphate buffer, pH 7.25, either alone, with 5 mM 3DG, or with 5 mM 3DG plus 10 mM arginine, in a total volume of 1 ml at 37° C. for 24 hours and then frozen and lyophilized. The residue was dissolved in 0.5 ml of 70% formic acid and cyanogen bromide was added (20:1, w/w). This solution was incubated at 30° C. for 18 hours. […] The extent of collagen crosslinking was determined by applying equal volumes of sample and analyzing by SDS-PAGE electrophoresis (16.5% Tris-tricine gel), as determined by the effects of 3DG on the migration of collagen.

The subject of series [2] is 3-deoxyglucosone. Description: Reduction of urinary and plasma 3-deoxyglucosone by polyollysines and meglumine. It counts as in vivo, rat. Conditions: for reduction of plasma 3-deoxyglucosone / average reduction of urinary 3-deoxyglucosone: rats, 10 μmols i.p.; for reduction of plasma 3-deoxyglucosone: plasma at end of 3 h; for average reduction of urinary 3-deoxyglucosone: urine 3 h before vs 3 h after, normalized to creatinine. On the procedure:
Urine was collected from six rats for three hours. A plasma sample was also obtained. The animals were then given 10 μmols of either sorbitollysine, mannitollysine, or galactitollysine by intraperitoneal injection. Urine was collected for another three hours, and a plasma sample obtained at the end of the three hours. 3-deoxyglucosone was measured in the samples, as described in Example 5, below, and variable volumes were normalized to creatinine. The average reduction of urinary 3-deoxyglucosone was 50% by sorbitollysine, 35% by mannitollysine and 35% by galactitollysine. Plasma 3-deoxyglucosone was reduced 40% by sorbitollysine, 58% by mannitollysine and 50% by galactitollysine.
Three rats were treated as in b), immediately above, except meglumine (100 μmols) was injected intraperitoneally instead of the above-mentioned lysine derivatives. Three hours after the injection the average 3-deoxyglucosone concentrations in the urine were decreased 42%.
3DG was measured by GC-MS after deionization of the sample. 3DG was derivatized with a 10-fold excess of diaminonaphthalene in PBS. Ethyl acetate extraction gave a salt free fraction which was converted to the trimethyl silyl ethers with Tri-Sil (Pierce). Analysis was performed on a Hewlett-Packard 5890 selected ion monitoring GC-MS system. GC was performed on a fused silica capillary column (DB-5,25 mx.25 mm) using the following temperature program: injector port 250° C., initial column temperature 150° C. which was held for 1 minute, then increased to 290° C. at 16° C./minute and held for 15 minutes. Quantitation of 3DG employed selected ion monitoring using an internal standard of U-13C-3DG.

Series [3] deals with Amadorase. The conditions noted are these: read-out: concentration inhibiting Amadorase by 50%; purified Amadorase, 37° C., 15 minutes. The protocol: Experiments were performed to test the effect of copper on the activity of the Amadorase enzyme in vitro. Using methods described elsewhere, increasing amounts of copper in the form of CuSO4, was added to an in vitro assay. Purified Amadorase was added to the reaction, incubated at 37° C. for 15 minutes, and the amount of FL3P measured. The graph depicted in FIG. 20 represents percent Amadorase activity as a function of copper concentration.

The subject of series [4] is Amadorase. Description: In vitro Amadorase-dependent production of 3DG from FL. It counts as biochemical. Conditions: FL 2.6 mM.
Series [5] concerns human dermal fibroblasts acquired from a patient with scleroderma. Description: Collagen 1A1 mRNA by Northern blot in scleroderma fibroblasts. It counts as cell-based. Conditions: 5 mM, 72 hours, normalized to GAPDH mRNA. On the procedure: In these experiments 5 mM FL was added to cultured human dermal fibroblasts acquired from a patient with scleroderma. After 72 hours, cells were collected and mRNA isolated. Equal amounts of each mRNA preparation was separated by electrophoresis and the amount of collagen 1A1 mRNA detected by Northern blot using a radioactive probe to the collagen 1A1 mRNA as shown in FIG. 19. A phosphoimager was used to quantify the amount of collagen type 1 mRNA. A radioactive probe to the GAPDH mRNA was used as a control to normalize the level of collagen 1A1 mRNA in each sample. The level of collagen 1A1 RNA was decreased by 40%.

Series [6] is described as follows: Urinary FL, 3DG and 3DF in humans after ingestion of glycated protein (2 g FL). The conditions noted are these: seven volunteers, 2 gram dose of fructoselysine as glycated protein food. It counts as in vivo, human. On the procedure: 260 g of casein, 120 g of glucose and 720 ml of water were mixed to give a homogeneous mixture. This mixture was transferred to a metal plate and heated at 65° C. for 68 hours. The resulting cake was then pulverized to a coarse powder. This powder contained 60% protein as determined by the Kjeldahl procedure.
One gram of the powder prepared as in step a., above, was hydrolyzed by refluxing with 6N HCl for 20 hours. The resulting solution was adjusted to pH 1.8 with NaOH solution and diluted to 100 ml. The fructoselysine content was measured on an amino acid analyzer as furosine, the product obtained from acid hydrolysis of fructoselysine. In this way, it was determined that the cake contained 5.5% (w/w) fructoselysine. […]
FL was measured by HPLC with a Waters 996 diode Array using a Waters C18 Free Amino Acid column at […] and a gradient elution system of acetonitrile-methyl alcohol-water (45:15:40) into acetonitrile-sodium acetate-water (6:2:92) at 1 ml/min. Quantitation employed an internal standard of meglumine. 3DF was measured by HPLC after deionization of the sample. […] Quantitation was performed from standard curves obtained daily with synthetic 3DF.
3DG was measured by GC-MS after deionization of the sample. […] Quantitation of 3DG employed selected ion monitoring using an internal standard of U-13C-3DG.

In series [7] the test system is desmosines. Description: Lung desmosine levels in STZ-diabetic mice. The conditions noted are these: regardless of whether diabetic. It counts as in vivo. The protocol: (§1) For desmosine analysis, the biopsy of tissue is fixated using paraffin. The paraffin is removed from the […] in the microfuge tubes by incubating for 10 minutes with 500 μL of xylene. Five microliters of water is added, the tubes gently vortexed and then microfuged. The xylene is carefully removed, 400 μL of 6N HCl is added to the protein pellet, and the samples hydrolyzed for 24 hours at 100° C. The acid is evaporated in a savant vacuum centrifuge and the hydrolysate redissolved in 400 μL distilled water. The samples are vortexed and microfuged and 20 μL removed from each tube for desmosine analysis by radioimmunoassay. Protein content is determined in 2 μL of the hydrolysate by slightly modifying the ninhydrin method. A stock ninhydrin solution is made by dissolving 10 g of ninhydrin in 375 mL of ethylene glycol and 125 mL of 4N sodium acetate buffer, pH 5.5. For the working solution, 250 μL of 10% stannous chloride suspension is added for every 10 mL of the ninhydrin stock solution. Hydroxyproline is determined in 50 μL of hydrolysate by amino acid analysis.
Lung tissues from mice made diabetic with STZ was excised and analyzed for desmosine levels. The levels of desmosines in diabetic mice were greater than non-diabetic mice.

Series [8] concerns desmosines. Description: Aorta desmosine levels in diabetic rats. It counts as in vivo, rat. On the procedure: as §1
The test system of series [9] is desmosines. Description: Skin desmosine content in diabetic rats. It counts as in vivo, rat. On the procedure: as §1
The production of desmosines, a precursor to elastin, can be regulated by compounds that affect the Amadorase pathway. Skin from normal, diabetic, and animals treated with 1-deoxy-1-morpholinofructose were excised and for desmosine content as described in example 29.

Where [10] appears, read: individual treated diabetic rats.

T1 sequence (P02453 162-1217 limits assumed): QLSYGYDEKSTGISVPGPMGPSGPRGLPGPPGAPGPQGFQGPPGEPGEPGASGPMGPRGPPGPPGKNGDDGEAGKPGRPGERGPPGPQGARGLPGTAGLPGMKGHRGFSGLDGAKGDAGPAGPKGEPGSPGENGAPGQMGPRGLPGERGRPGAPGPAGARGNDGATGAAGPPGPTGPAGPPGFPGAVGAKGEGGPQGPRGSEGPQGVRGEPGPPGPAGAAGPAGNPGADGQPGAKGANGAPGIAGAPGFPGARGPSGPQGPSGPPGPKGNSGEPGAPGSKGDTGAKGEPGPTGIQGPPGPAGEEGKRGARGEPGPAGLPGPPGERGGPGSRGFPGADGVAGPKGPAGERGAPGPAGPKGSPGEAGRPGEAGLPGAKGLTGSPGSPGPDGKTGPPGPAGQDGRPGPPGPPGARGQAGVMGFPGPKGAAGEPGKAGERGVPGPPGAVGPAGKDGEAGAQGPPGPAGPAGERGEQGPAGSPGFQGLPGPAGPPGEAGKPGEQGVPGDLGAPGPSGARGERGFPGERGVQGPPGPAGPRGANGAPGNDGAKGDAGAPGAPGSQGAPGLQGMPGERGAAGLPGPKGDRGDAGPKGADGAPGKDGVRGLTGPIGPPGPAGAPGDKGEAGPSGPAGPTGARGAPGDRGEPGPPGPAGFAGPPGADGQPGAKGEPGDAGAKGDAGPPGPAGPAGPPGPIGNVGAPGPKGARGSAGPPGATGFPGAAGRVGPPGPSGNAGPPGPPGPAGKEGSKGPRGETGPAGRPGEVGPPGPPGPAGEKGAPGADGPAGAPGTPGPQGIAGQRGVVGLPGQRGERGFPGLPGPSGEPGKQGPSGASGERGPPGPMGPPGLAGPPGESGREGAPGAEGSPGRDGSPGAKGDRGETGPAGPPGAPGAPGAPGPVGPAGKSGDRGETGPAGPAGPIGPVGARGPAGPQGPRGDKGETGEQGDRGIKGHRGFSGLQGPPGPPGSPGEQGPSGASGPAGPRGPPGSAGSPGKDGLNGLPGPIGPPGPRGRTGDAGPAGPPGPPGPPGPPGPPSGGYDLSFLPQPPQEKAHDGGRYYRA
T1 sequence (P02465 80-1117 limits assumed): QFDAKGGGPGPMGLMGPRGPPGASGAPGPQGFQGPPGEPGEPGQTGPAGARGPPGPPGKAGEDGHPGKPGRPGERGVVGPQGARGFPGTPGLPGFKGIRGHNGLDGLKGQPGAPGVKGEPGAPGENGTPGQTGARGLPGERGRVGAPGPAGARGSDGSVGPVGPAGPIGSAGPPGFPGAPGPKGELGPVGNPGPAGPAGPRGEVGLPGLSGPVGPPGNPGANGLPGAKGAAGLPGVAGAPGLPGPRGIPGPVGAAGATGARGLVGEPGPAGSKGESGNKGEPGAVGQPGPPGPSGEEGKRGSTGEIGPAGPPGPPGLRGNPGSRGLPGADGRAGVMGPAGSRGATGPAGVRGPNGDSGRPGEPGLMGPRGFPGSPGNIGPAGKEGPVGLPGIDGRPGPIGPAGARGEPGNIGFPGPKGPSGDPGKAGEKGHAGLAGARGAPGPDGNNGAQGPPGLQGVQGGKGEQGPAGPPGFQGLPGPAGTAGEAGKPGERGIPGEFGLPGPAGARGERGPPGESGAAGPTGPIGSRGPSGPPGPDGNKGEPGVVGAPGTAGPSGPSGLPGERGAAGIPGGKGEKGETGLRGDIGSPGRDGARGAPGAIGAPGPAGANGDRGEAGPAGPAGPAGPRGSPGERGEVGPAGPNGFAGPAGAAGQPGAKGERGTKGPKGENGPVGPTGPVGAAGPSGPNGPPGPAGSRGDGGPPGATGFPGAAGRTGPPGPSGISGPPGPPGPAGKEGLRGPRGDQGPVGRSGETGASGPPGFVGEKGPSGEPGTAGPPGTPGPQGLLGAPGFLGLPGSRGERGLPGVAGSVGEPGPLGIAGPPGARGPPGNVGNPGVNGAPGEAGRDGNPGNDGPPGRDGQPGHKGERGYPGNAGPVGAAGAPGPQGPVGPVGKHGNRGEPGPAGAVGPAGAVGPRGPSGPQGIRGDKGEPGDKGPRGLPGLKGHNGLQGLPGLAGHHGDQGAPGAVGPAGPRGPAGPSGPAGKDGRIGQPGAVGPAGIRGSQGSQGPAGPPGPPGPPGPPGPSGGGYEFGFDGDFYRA

In the case of `N=C(N)NCCC[C@H](N)C(=O)O` [arginine], in [1] (collagen type I with 5 mM 3DG plus 10 mM arginine), the “inhibition of 3DG induced collagen crosslinking” value is reported as “fewer high molecular bands”.

With `N[C@@H](CCCCNC[C@@H](O)[C@@H](O)[C@H](O)[C@H](O)CO)C(=O)O` [mannitollysine], in series [2], the “reduction of plasma 3-deoxyglucosone” value came out at 58% and the “average reduction of urinary 3-deoxyglucosone” value (shortened to “average reduction”) is listed as 35%.

Turning to `O=CC(=O)C[C@H](O)[C@H](O)CO` [3DG, 3-deoxyglucosone, reference compound], in [1] (collagen type I with 5 mM 3DG), the “effect on collagen migration (crosslinking)” value is given as “caused the collagen to migrate as if it had a higher molecular weight”.

Take `O=S(=O)([O-])[O-].[Cu+2]` [Copper sulfate]: the IC50 in series [3] was ~1000 nM.

For `N[C@@H](CCCCNCC(=O)[C@@H](O)[C@H](O)[C@H](O)CO)C(=O)O` [fructoselysine], the “3DG (mM) after 24 hours” value was 1.58 mM in [4] (reaction 1: Amadorase +, ATP +); 0.08 mM in series [4] (reaction 2: Amadorase +, ATP −); 0.09 mM in [4] (reaction 3: Amadorase −, ATP +); 0.08 mM in series [4] (reaction 4: Amadorase −, ATP −). For the same molecule, the “FL3P (mM) after 24 hours” value in series [4] (reaction 1: Amadorase +, ATP +) is 0.2 mM; in series [4] (reaction 2: Amadorase +, ATP −) it was 0.0 mM; in series [4] (reaction 3: Amadorase −, ATP +), 0.0 mM; in [4] (reaction 4: Amadorase −, ATP −), 0.0 mM. In addition, the “decrease of level of collagen 1A1 RNA” value in series [5] worked out at 40%. Besides, the “time of peak 3DF excretion in urine after FL bolus” value in [6] was “about 4 hours”.

Turning to `CNC[C@H](O)[C@@H](O)[C@H](O)[C@H](O)CO` [meglumine, reference compound], in series [2] (three rats, 100 μmols i.p., three hours after injection), the “decrease of average 3-deoxyglucosone concentration in urine” value was found to be 42%. The “lung desmosine levels compared to untreated mice” value in series [7] is “less than mice not so treated”.

Take `N[C@@H](CCCCNC[C@H](O)[C@@H](O)[C@H](O)[C@H](O)CO)C(=O)O` [sorbitollysine]: in series [2], the “reduction of plasma 3-deoxyglucosone” value is 40% and the “average reduction” value is listed as 50%.

As for `O=C(CN1CCOCC1)[C@@H](O)[C@H](O)[C@H](O)CO` [1-deoxy-1-morpholinofructose], in [8] (diabetic rats, P=0.104), the “aorta desmosine levels compared to untreated diabetic rats” value is recorded as “decrease in desmosine levels”. Moreover, the “aorta desmosine pmD/mgP” value in [8] (setting [10]) was 3809 pmD/mgP and 2558 pmD/mgP and 2842 pmD/mgP and 2906 pmD/mgP and 3633 pmD/mgP and 3681 pmD/mgP. The “skin desmosine levels compared to untreated diabetic animals” value in series [9] (diabetic animals, P=0.00242) was “lower levels of desmosines”. In addition, in [9] (setting [10]), the “skin desmosine content pmD/mgP” value was 63.1 pmD/mgP and 67.9 pmD/mgP (2×) and 88.1 pmD/mgP and 64.3 pmD/mgP and 65.8 pmD/mgP and 65.1 pmD/mgP and 66.8 pmD/mgP.

In the case of `N[C@@H](CCCCNC[C@H](O)[C@@H](O)[C@@H](O)[C@H](O)CO)C(=O)O` [galactitollysine], in series [2], the “reduction of plasma 3-deoxyglucosone” value turned out to be 50% and the “average reduction” value was 35%.
